Test results: PubChem BioAssay AID1259407 (Chemical Carcinogenesis Research Information System (CCRIS), 2018)
Calls of active or inactive are those of the source. The rule behind the calls is not given here.

System: CCRIS mutagenicity, Ames/micronucleus/aberration tests
Assay: CCRIS mutagenicity studies
Text: The CCRIS database contains chemical records with carcinogenicity, mutagenicity, tumor promotion, and tumor inhibition test results. It was developed by the National Cancer Institute (NCI). Data are derived from studies cited in primary journals, current awareness tools, NCI reports, and other sources. Test results have been reviewed by experts in carcinogenesis and mutagenesis.
CCRIS provides historical information from the years 1985 - 2011. It is no longer updated.
This is an archive assay for CCRIS mutagenicity studies.

C=O
mutagenic call (End Point: IN VITRO CHROMOSOMAL ABERRATIONS, Test System: SYRIAN HAMSTER EMBRYO (SHE) CELLS, Metabolic Activation: NONE): active; positive (structural changes) | mutagenic call (End Point: In vitro chromosomal aberrations, Test System: Chinese hamster ovary (CHO) cells, Metabolic Activation: None): active; positive | mutagenic call (End Point: In vitro chromosomal aberrations, Test System: Chinese hamster ovary (CHO) cells, Metabolic Activation: S-9): active; positive | mutagenic call (End Point: In vivo micronucleus, Test System: Peripheral blood erythrocytes, Species: Rat, Strain/Sex: F344/DuCrl / Male, Route: Inhalation): inactive; negative | mutagenic call (Test System: AMES SALMONELLA TYPHIMURIUM, Strain/Indicator: TA97, Metabolic Activation: NONE, Method: PREINCUBATION): inactive; negative | mutagenic call (Test System: AMES SALMONELLA TYPHIMURIUM, Strain/Indicator: TA97, Metabolic Activation: NONE, Method: STANDARD PLATE): active; positive | mutagenic call (Test System: AMES SALMONELLA TYPHIMURIUM, Strain/Indicator: TA98, Metabolic Activation: RAT, LIVER, S-9, AROCLOR 1254, Method: PREINCUBATION): active; positive | mutagenic call (Test System: AMES SALMONELLA TYPHIMURIUM, Strain/Indicator: TA98, Metabolic Activation: RAT, LIVER, S-9, AROCLOR 1254, Method: STANDARD PLATE): active; positive | mutagenic call (Test System: AMES SALMONELLA TYPHIMURIUM, Strain/Indicator: TA100, Metabolic Activation: MOUSE LIVER S-9, AROCLOR 1254, Method: PREINCUBATION): active; positive | mutagenic call (Test System: AMES SALMONELLA TYPHIMURIUM, Strain/Indicator: TA100, Metabolic Activation: NONE, Method: SUSPENSION): active; positive | mutagenic call (Test System: AMES SALMONELLA TYPHIMURIUM, Strain/Indicator: TA100, Metabolic Activation: RAT LIVER S-9, AROCLOR 1254, Method: PREINCUBATION): active; positive | mutagenic call (Test System: AMES SALMONELLA TYPHIMURIUM, Strain/Indicator: TA100, Metabolic Activation: RAT, LIVER, S-9, AROCLOR 1254, Method: STANDARD PLATE): active; positive | mutagenic call (Test System: AMES SALMONELLA TYPHIMURIUM, Strain/Indicator: TA100, Metabolic Activation: RAT, LIVER, S-9, AROCLOR 1254, Method: SUSPENSION): active; positive | mutagenic call (Test System: AMES SALMONELLA TYPHIMURIUM, Strain/Indicator: TA100, Metabolic Activation: RAT, LIVER, S-9, AROCLOR, Method: STANDARD PLATE): active; positive | mutagenic call (Test System: AMES SALMONELLA TYPHIMURIUM, Strain/Indicator: TA102, Metabolic Activation: NONE, Method: FLUCTUATION TEST): active; positive | mutagenic call (Test System: AMES SALMONELLA TYPHIMURIUM, Strain/Indicator: TA102, Metabolic Activation: NONE, Method: PREINCUBATION): active; positive | mutagenic call (Test System: AMES SALMONELLA TYPHIMURIUM, Strain/Indicator: TA104, Metabolic Activation: MOUSE LIVER S-9, AROCLOR 1254, Method: PREINCUBATION): active; positive | mutagenic call (Test System: AMES SALMONELLA TYPHIMURIUM, Strain/Indicator: TA104, Metabolic Activation: NONE, Method: PREINCUBATION): active; positive | mutagenic call (Test System: AMES SALMONELLA TYPHIMURIUM, Strain/Indicator: TA104, Metabolic Activation: RAT LIVER S-9, AROCLOR 1254, Method: PREINCUBATION): active; positive | mutagenic call (Test System: AMES SALMONELLA TYPHIMURIUM, Strain/Indicator: TA104, Metabolic Activation: RAT, LIVER, S-9, AROCLOR 1254, Method: PREINCUBATION): active; positive | mutagenic call (Test System: AMES SALMONELLA TYPHIMURIUM, Strain/Indicator: TA1535, Metabolic Activation: NONE, Method: PREINCUBATION): inactive; negative | mutagenic call (Test System: AMES SALMONELLA TYPHIMURIUM, Strain/Indicator: TA1535, Metabolic Activation: NONE, Method: STANDARD PLATE): inactive; negative | mutagenic call (Test System: AMES SALMONELLA TYPHIMURIUM, Strain/Indicator: TA1535, Metabolic Activation: RAT, LIVER, S-9, AROCLOR 1254, Method: PREINCUBATION): inactive; negative | mutagenic call (Test System: AMES SALMONELLA TYPHIMURIUM, Strain/Indicator: TA1535, Metabolic Activation: RAT, LIVER, S-9, AROCLOR 1254, Method: STANDARD PLATE): inactive; negative | mutagenic call (Test System: AMES SALMONELLA TYPHIMURIUM, Strain/Indicator: TA1537, Metabolic Activation: NONE, Method: PREINCUBATION): inactive; negative | mutagenic call (Test System: AMES SALMONELLA TYPHIMURIUM, Strain/Indicator: TA1537, Metabolic Activation: RAT, LIVER, S-9, AROCLOR 1254, Method: PREINCUBATION): inactive; negative | mutagenic call (Test System: AMES SALMONELLA TYPHIMURIUM, Strain/Indicator: TA1537, Metabolic Activation: RAT, LIVER, S-9, AROCLOR 1254, Method: STANDARD PLATE): active; positive | mutagenic call (Test System: AMES SALMONELLA TYPHIMURIUM, Strain/Indicator: TA1538, Metabolic Activation: NONE, Method: PREINCUBATION): inactive; negative | mutagenic call (Test System: AMES SALMONELLA TYPHIMURIUM, Strain/Indicator: TA1538, Metabolic Activation: NONE, Method: STANDARD PLATE): inactive; negative | mutagenic call (Test System: AMES SALMONELLA TYPHIMURIUM, Strain/Indicator: TA2638, Metabolic Activation: NONE, Method: STANDARD PLATE): active; positive | mutagenic call (Test System: AMES SALMONELLA TYPHIMURIUM, Strain/Indicator: TA2638A, Metabolic Activation: NONE, Method: PREINCUBATION): active; positive | mutagenic call (Test System: AMES SALMONELLA TYPHIMURIUM, Strain/Indicator: UTH8413, Metabolic Activation: NONE, Method: STANDARD PLATE): inactive; negative | mutagenic call (Test System: AMES SALMONELLA TYPHIMURIUM, Strain/Indicator: UTH8413, Metabolic Activation: RAT, LIVER, S-9, AROCLOR, Method: STANDARD PLATE): inactive; negative | mutagenic call (Test System: AMES SALMONELLA TYPHIMURIUM, Strain/Indicator: UTH8414, Metabolic Activation: NONE, Method: STANDARD PLATE): inactive; negative | mutagenic call (Test System: AMES SALMONELLA TYPHIMURIUM, Strain/Indicator: UTH8414, Metabolic Activation: RAT, LIVER, S-9, AROCLOR, Method: STANDARD PLATE): inactive; negative | mutagenic call (Test System: CHINESE HAMSTER OVARY, Strain/Indicator: CHO-K1 (HPRT)/6-THIOGUANINE, Metabolic Activation: NONE, Method: SUSPENSION): active; positive | mutagenic call (Test System: CHINESE HAMSTER OVARY, Strain/Indicator: CHO-K1 (HPRT)/6-THIOGUANINE, Metabolic Activation: NONE, Method: SUSPENSION/PLATE): inactive; negative | mutagenic call (Test System: CHINESE HAMSTER V-79, Strain/Indicator: V-79/6-THIOGUANINE, Metabolic Activation: NONE): active; positive | mutagenic call (Test System: E. COLI, Strain/Indicator: 016 POLA, Metabolic Activation: NONE, Method: PREINCUBATION): inactive; negative | mutagenic call (Test System: E. COLI, Strain/Indicator: H/R30R, Metabolic Activation: NONE, Method: PREINCUBATION): active; positive | mutagenic call (Test System: E. COLI, Strain/Indicator: HS30R UVRA, Metabolic Activation: NONE, Method: PREINCUBATION): active; positive | mutagenic call (Test System: E. COLI, Strain/Indicator: K12(AB1157) (WILD TYPE), Metabolic Activation: NONE, Method: SUSPENSION/PLATE): active; positive | mutagenic call (Test System: E. COLI, Strain/Indicator: K12(AB1886) (UVRA), Metabolic Activation: NONE, Method: SUSPENSION/PLATE): inactive; negative | mutagenic call (Test System: E. COLI, Strain/Indicator: K12(AB2480) (RECA/UVRA), Metabolic Activation: NONE, Method: SUSPENSION/PLATE): inactive; negative | mutagenic call (Test System: E. COLI, Strain/Indicator: NG30 RECA, Metabolic Activation: NONE, Method: PREINCUBATION): inactive; negative | mutagenic call (Test System: E. COLI, Strain/Indicator: WP2 (PKM101), Metabolic Activation: NONE, Method: PREINCUBATION): active; positive | mutagenic call (Test System: E. COLI, Strain/Indicator: WP2, Metabolic Activation: NONE, Method: PREINCUBATION): active; positive | mutagenic call (Test System: E. COLI, Strain/Indicator: WP2 UVRA (PKM101), Metabolic Activation: NONE, Method: PREINCUBATION): active; positive | mutagenic call (Test System: E. COLI, Strain/Indicator: WP2 UVRA (PKM101), Metabolic Activation: NONE, Method: STANDARD PLATE): active; positive | mutagenic call (Test System: E. COLI, Strain/Indicator: WP2 UVRA, Metabolic Activation: NONE, Method: PREINCUBATION): active; positive | mutagenic call (Test System: MOUSE LYMPHOMA, Strain/Indicator: L5178Y (TK+/TK-), Metabolic Activation: NONE, Method: SUSPENSION/PLATE): active; positive
